Test results: PubChem BioAssay AID1845228

Settings: pampa; 60.0 min; 50.0 µM

**Q.** With `O=C(N[C@H]1CCS[C@H]2CCC[C@@H](C(=O)O)N2C1=O)[C@@H](S)Cc1ccccc1` as the compound, how does the Papp read?
**A.** < 1 ×10⁻⁶ cm/s

**Q.** With `CC(C)N(CCCNC(=O)Nc1ccc(C(C)(C)C)cc1)C[C@H]1O[C@@H](n2cc(Br)c3c(N)ncnc32)[C@H](O)[C@@H]1O` as the compound, how does the Papp read?
**A.** 6.2 ×10⁻⁶ cm/s

**Q.** For `O=C(O)Cc1ccc2c(c1)C(=O)c1ccccc1CO2`, which Papp is on record?
**A.** < 1 ×10⁻⁶ cm/s

**Q.** Which Papp does the source give for `O=C1CCCC2=C1C(c1[nH]ncc1Cl)N=C(Nc1nc3ccccc3o1)N2` (stereo not given) here?
**A.** 275 ×10⁻⁶ cm/s

**Q.** Which Papp does the source give for `O=C(CBr)N1CC([N+](=O)[O-])([N+](=O)[O-])C1` here?
**A.** < 1 ×10⁻⁶ cm/s

**Q.** Which Papp does the source give for `O=C(NN1CCCCC1)c1nn(-c2ccc(Cl)cc2Cl)c(-c2ccc(C#Cc3ccc(C(F)(F)F)cc3)s2)c1CNS(=O)(=O)N1CCCC1` here?
**A.** 4 ×10⁻⁶ cm/s

**Q.** Which Papp does the source give for `COc1ccccc1NC(=O)C1=C(C)Nc2c(C(=O)Nc3ccc(F)cc3)cnn2C1c1ccc(Cl)cc1` (stereo not given) here?
**A.** < 1 ×10⁻⁶ cm/s

**Q.** With `CNc1oc(-c2cccc(Cl)c2Cl)nc1C#N` as the compound, how does the Papp read?
**A.** 124 ×10⁻⁶ cm/s

**Q.** With `N#Cc1cccc(-c2nc(-c3cccnc3)no2)c1` as the compound, how does the Papp read?
**A.** 150 ×10⁻⁶ cm/s

**Q.** For `Cc1ccc(=O)n(-c2ccccc2)c1`, which Papp is on record?
**A.** 14 ×10⁻⁶ cm/s

**Q.** With `CCNC1(C(N)=O)CN(c2nc(C)nc3c(-c4ccc(Cl)cc4)c(-c4ccccc4Cl)nn23)C1` as the compound, how does the Papp read?
**A.** 8.69 ×10⁻⁶ cm/s

**Q.** Which Papp does the source give for `Oc1c(Cl)cc(Cl)cc1Sc1cc(Cl)cc(Cl)c1O` here?
**A.** 288 ×10⁻⁶ cm/s

**Q.** For `c1ccc(Nc2nc3c(s2)CCCc2[nH]ncc2-3)nc1`, which Papp is on record?
**A.** 194 ×10⁻⁶ cm/s

**Q.** For `CCCN(CCC)C1CCc2cccc(O)c2C1` (stereo not given), which Papp is on record?
**A.** 88 ×10⁻⁶ cm/s

**Q.** Which Papp does the source give for `Nc1nc2c(s1)CCN(Cc1ccc(Cl)cc1)CC2` here?
**A.** 127 ×10⁻⁶ cm/s

**Q.** Which Papp does the source give for `CN1CCN(c2ccc(C(=O)Nc3n[nH]c4ccc(Cc5cc(F)cc(F)c5)cc34)c(NC3CCOCC3)c2)CC1` here?
**A.** 113 ×10⁻⁶ cm/s

**Q.** With `CC(=O)OC[C@@H]1O[C@@H](n2ccc(=O)[nH]c2=O)[C@H](OC(C)=O)[C@H]1OC(C)=O` as the compound, how does the Papp read?
**A.** < 1 ×10⁻⁶ cm/s

**Q.** For `Cc1ccc(-c2c(C(=O)CF)n(CCCO)c3ncnc(N)c23)cc1`, which Papp is on record?
**A.** 18 ×10⁻⁶ cm/s

**Q.** For `O=C(/C=C\n1cnc(-c2cc(C(F)(F)F)cc(C(F)(F)F)c2)n1)N1CC(F)(F)C1`, which Papp is on record?
**A.** 121 ×10⁻⁶ cm/s

**Q.** For `CCOc1ccc(C2C(C(=O)Nc3ccccc3OC)=C(C)Nc3c(C(=O)Nc4cccc(C)c4)cnn32)cc1` (stereo not given), which Papp is on record?
**A.** 45 ×10⁻⁶ cm/s

**Q.** With `O=C(Nc1cnn2ccc(N3CCC[C@@H]3c3cc(F)ccc3F)nc12)N1CC[C@H](O)C1` as the compound, how does the Papp read?
**A.** 3 ×10⁻⁶ cm/s

**Q.** With `COC(=O)[C@]12CCC(C)(C)C[C@@H]1[C@@H]1C(=O)C=C3[C@@]4(C)C=C(C#N)C(=O)C(C)(C)[C@@H]4CC[C@@]3(C)[C@]1(C)CC2` as the compound, how does the Papp read?
**A.** 8 ×10⁻⁶ cm/s

**Q.** Which Papp does the source give for `OCCOCCN1CCN(C(c2ccccc2)c2ccc(Cl)cc2)CC1` (stereo not given) here?
**A.** 114 ×10⁻⁶ cm/s

**Q.** With `N=c1c2c(-c3ccccc3)cn(Cc3ccccc3)c2ncn1[C@H](CO)Cc1ccccc1` as the compound, how does the Papp read?
**A.** 22 ×10⁻⁶ cm/s

**Q.** For `Cn1cc(C2=C(c3coc4ccccc34)C(=O)NC2=O)c2cc(Br)ccc21`, which Papp is on record?
**A.** 3 ×10⁻⁶ cm/s

**Q.** For `O=C(NCc1ccc(OC(F)(F)F)cc1)C1c2ccccc2C(=O)N1C1CCOCC1` (stereo not given), which Papp is on record?
**A.** 42 ×10⁻⁶ cm/s

**Q.** With `CC(C)(C)C(=O)OCOC(=O)C1N2C(=O)CC2S(=O)(=O)C1(C)C` (stereo not given) as the compound, how does the Papp read?
**A.** 37 ×10⁻⁶ cm/s

**Q.** For `Nc1ccc(-c2ccc3ncc4ccc(=O)n(-c5cccc(C(F)(F)F)c5)c4c3c2)cn1`, which Papp is on record?
**A.** > 300 ×10⁻⁶ cm/s

**Q.** With `CCOc1ccc2ccccc2c1C(=O)N[C@@H]1C(=O)N2[C@@H]1SC(C)(C)[C@@H]2C(=O)O` as the compound, how does the Papp read?
**A.** < 1 ×10⁻⁶ cm/s

**Q.** For `O=C1NC(Nc2ccccc2)=N/C1=C\c1ccc2c(c1)OCO2`, which Papp is on record?
**A.** < 1 ×10⁻⁶ cm/s

**Q.** For `CC(=O)c1cc(C(=O)N[C@@H](C)Cn2ccc(-c3ccc(C#N)c(Cl)c3)n2)[nH]n1`, which Papp is on record?
**A.** 164 ×10⁻⁶ cm/s

**Q.** Which Papp does the source give for `COc1ccc(Cn2c(-c3ccccc3)c(-c3ccccc3)c3c(=N)n(CCCCO)cnc32)cc1` here?
**A.** 279 ×10⁻⁶ cm/s

**Q.** Which Papp does the source give for `CCS(=O)(=O)N1CC(CC#N)(n2cc(-c3ncnc4[nH]ccc34)cn2)C1` here?
**A.** < 1 ×10⁻⁶ cm/s

**Q.** With `C1CCC(COCCc2noc(C3CNC3)n2)C1` as the compound, how does the Papp read?
**A.** < 1 ×10⁻⁶ cm/s

**Q.** With `CC1(C)CC(=O)c2c(C(F)(F)F)nn(-c3ccc(C(N)=O)c(NC4CCC(O)CC4)c3)c2C1` (stereo not given) as the compound, how does the Papp read?
**A.** 21.5 ×10⁻⁶ cm/s

**Q.** Which Papp does the source give for `O=C(O)[C@H]1O[C@@H](Oc2cc3oc(-c4ccc(O)cc4)cc(=O)c3c(O)c2O)[C@H](O)[C@@H](O)[C@@H]1O` here?
**A.** < 1 ×10⁻⁶ cm/s

**Q.** With `CNc1ncc(-c2ccc3c(=O)c(C(=O)O)cn(C4CC4)c3c2C)cc1C` as the compound, how does the Papp read?
**A.** 3 ×10⁻⁶ cm/s

**Q.** Which Papp does the source give for `C[n+]1c2cc(N)ccc2cc2ccc(N)cc21` here?
**A.** < 1 ×10⁻⁶ cm/s

**Q.** Which Papp does the source give for `CC(=O)OCC1=C(C(=O)O)N2C(=O)C(NC(=O)CCCC(N)C(=O)O)C2SC1` (stereo not given) here?
**A.** 2 ×10⁻⁶ cm/s

**Q.** With `O=C(Nc1cnc(Cl)nc1)c1ccc(F)c(F)c1` as the compound, how does the Papp read?
**A.** 61 ×10⁻⁶ cm/s
